The target in one assay is human MMP-9 (Homo sapiens, UniProt P14780). As to the kind of experiment: Inhibition of human MMP-9 (IC50). It is filed as biochemical.
Another assay has as its target human MMP-12 (Homo sapiens, UniProt P39900). Nature of the assay: Inhibition of human MMP-12 (IC50). It is filed as biochemical.
In another assay the target is rat MMP-9 (Rattus norvegicus, UniProt P50282). As to the kind of experiment: Inhibition of rat MMP-9. Type of assay: biochemical.
A further assay concerns the target rat MMP-12 (Rattus norvegicus, UniProt Q63341). Nature of the assay: Inhibition of rat MMP-12. Type of assay: biochemical.
For assay [1], the system named is LPS-stimulated primary microglia. Nature of the assay: LPS-induced cytokine production by primary microglia (ELISA). Type of assay: cell-based, mouse. The following applies: LPS 10 ng/ml, 24 h. As for the experimental part:
Primary mouse microglia from 6-8-week-old C57BL/6 mouse brains were prepared according to a previously described protocol (Moussaud S, Draheim H J. A new method to isolate microglia from adult mice and culture them for an extended period of time. J Neurosci Methods 2010; 187(2): 243-53). Briefly, the meninges of brains were dissected out, finely minced enzymatically digested using 20 units/ml Papain (all from Sigma). After incubation for 90 min at 37° C., the suspension was centrifuged at 200 g for 7 min and the pellet resuspended in 0.5 mg/ml DNase I (Roche, Manheim, Germany) and triturated with fire-polished Pasteur pipettes of decreasing diameters. The homogenate was then filtered through a 70 μm cell strainer (Beckton Dickinson, Watford, UK), and centrifuged through a Percoll (GE Healthcare, Amersham, UK) gradient. Finally, the cell suspension was resuspended in DMEM/F12 medium supplemented with 10% FBS (all from Invitrogen) and 5 ng/ml of granulocyte colony and macrophage stimulating factor (GM-CSF) (#415-ML, R&D Systems. Watford, UK), plated out in T75 cell culture flasks (Beckton Dickinson) precoated with poly-L-lysine, and maintained at 37° C. and 5% CO2 for approximately 2 weeks. When the cells become confluent, microglia detach and migrate to the medium-air interface, floating and proliferating. The supernatant of the flask was then collected without prior shaking to remove the microglia growing on a mixed glial culture base and centrifuged at 200 g for 7 min. The purity of microglia was determined from each flask by immunocytochemistry for CD11b and confirmed as 95% pure. Before each experiment, microglia were cultured in DMEM/F12 without GM-CSF for at least 3 d.
Microglia were used for all experiments with an in vitro age between 15-20 d in vitro (DIV) and were seeded on glass coverslips in 24-well plates at a density of 3×10^4 cells/well. Microglia were exposed to serum-free media for 24 h before exposing the cells to different concentrations of lipopolyscaccharide (LPS) in preliminary experiments to determine optimal concentrations required to maximally activate our primary microglial cultures. This was determined as 10 ng/ml. For the microglial activation assay, cells were exposed to serum-free medium for 24 h before being exposed to LPS, with or without different concentrations of AZD1236, GM6001, SD2590 and MMP-9 Inhibitor I (all used at 10-500 ng/ml) for a further 24 h. Cell culture supernatant was then collected, centrifuged to remove cell debris and subjected to ELISA to determine the concentrations of TNF-α, IL-1β and IL-6. Experiments were performed in triplicate wells and repeated on 3 independent occasions (n=9 wells/treatment).
TNF-α (#MTA00B), IL-1β (#MLBOOC) and IL-6 (#M6000B) were determined using commercially available kits from R&D Systems, following the manufacturer's instructions.

The subject of the next assay is DC injury. As to the kind of experiment: Example 2: spinal cord water content as measure of injury-induced oedema. The following applies: in vivo. As for the experimental part: The lesion site+3 mm either side for mice and the lesion site+5 mm either side for the rat DC model were dissected out and the water content of the spinal cord (as a measure of oedema) was determined at 3 days after DC and CC SCI, as described previously (S. Li, C. H. Tator, Effects of MK801 on evoked potentials, spinal cord blood flow and cord edema in acute spinal cord injury in rats. Spinal Cord 37, 820-832 (1999)). Spinal cords containing the lesion site were weighed on aluminium foil, dried at 105° C. for 24 hr, and re-weighed. The percent water content was calculated as: water content (%)=[(wet weight-dry weight)/wet weight]×100%.
Using similar techniques to those described in Example 1, the water content in the spinal cord as a measure of injury-induced oedema was determined for both AZD1236 & AZD3342 (see FIG. 20).

The values below come from patent publication US20230255943A1, “MMP-9 AND MMP-12 INHIBITION FOR TREATING SPINAL CORD INJURY OR RELATED INJURY TO NEUROLOGICAL TISSUE” (The University of Birmingham, priority 2020, published 2023).

“And” between values parts separate entries of the source, which are not always exact repeats. Equal values may be shown once. Where a name gives a salt, the structure may show the parent alone.

Sequence of human MMP-12 (P39900 106-470): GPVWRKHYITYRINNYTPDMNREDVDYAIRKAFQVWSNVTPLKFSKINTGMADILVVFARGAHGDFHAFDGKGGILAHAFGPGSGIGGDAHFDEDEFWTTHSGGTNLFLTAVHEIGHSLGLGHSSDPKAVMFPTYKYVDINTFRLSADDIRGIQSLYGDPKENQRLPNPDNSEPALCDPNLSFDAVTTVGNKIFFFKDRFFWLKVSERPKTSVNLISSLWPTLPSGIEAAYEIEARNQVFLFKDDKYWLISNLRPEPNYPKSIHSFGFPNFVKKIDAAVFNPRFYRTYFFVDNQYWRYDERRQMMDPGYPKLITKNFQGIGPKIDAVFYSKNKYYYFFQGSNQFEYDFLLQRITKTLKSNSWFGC
Sequence of rat MMP-9 (P50282 108-708): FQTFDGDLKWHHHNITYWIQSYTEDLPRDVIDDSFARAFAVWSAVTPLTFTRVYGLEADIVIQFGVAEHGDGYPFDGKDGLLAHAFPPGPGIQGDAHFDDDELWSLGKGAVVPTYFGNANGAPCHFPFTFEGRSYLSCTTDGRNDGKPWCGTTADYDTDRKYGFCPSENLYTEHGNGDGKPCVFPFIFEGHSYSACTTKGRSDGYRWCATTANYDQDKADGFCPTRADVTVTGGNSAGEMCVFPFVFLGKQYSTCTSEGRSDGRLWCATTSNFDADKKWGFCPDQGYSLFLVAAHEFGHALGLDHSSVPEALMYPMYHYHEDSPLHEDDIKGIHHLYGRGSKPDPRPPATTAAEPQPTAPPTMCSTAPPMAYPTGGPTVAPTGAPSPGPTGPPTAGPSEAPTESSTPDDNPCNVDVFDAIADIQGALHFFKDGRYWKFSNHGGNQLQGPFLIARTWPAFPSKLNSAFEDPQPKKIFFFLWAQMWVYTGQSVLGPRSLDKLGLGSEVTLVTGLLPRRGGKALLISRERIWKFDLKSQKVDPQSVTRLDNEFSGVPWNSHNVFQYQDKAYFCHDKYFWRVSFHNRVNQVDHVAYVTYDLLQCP
Sequence of rat MMP-12 (Q63341 102-465): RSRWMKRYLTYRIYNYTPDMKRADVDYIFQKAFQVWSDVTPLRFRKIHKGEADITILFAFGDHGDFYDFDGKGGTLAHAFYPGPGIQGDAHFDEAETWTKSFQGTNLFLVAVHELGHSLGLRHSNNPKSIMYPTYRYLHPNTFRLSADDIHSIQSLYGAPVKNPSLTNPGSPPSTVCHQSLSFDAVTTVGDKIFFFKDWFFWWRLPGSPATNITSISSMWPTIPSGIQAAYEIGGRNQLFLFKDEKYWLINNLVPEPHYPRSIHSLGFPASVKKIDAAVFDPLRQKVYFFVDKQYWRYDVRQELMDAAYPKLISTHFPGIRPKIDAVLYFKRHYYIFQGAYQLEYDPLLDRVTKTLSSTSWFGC
Sequence of human MMP-9 (P14780 94-707): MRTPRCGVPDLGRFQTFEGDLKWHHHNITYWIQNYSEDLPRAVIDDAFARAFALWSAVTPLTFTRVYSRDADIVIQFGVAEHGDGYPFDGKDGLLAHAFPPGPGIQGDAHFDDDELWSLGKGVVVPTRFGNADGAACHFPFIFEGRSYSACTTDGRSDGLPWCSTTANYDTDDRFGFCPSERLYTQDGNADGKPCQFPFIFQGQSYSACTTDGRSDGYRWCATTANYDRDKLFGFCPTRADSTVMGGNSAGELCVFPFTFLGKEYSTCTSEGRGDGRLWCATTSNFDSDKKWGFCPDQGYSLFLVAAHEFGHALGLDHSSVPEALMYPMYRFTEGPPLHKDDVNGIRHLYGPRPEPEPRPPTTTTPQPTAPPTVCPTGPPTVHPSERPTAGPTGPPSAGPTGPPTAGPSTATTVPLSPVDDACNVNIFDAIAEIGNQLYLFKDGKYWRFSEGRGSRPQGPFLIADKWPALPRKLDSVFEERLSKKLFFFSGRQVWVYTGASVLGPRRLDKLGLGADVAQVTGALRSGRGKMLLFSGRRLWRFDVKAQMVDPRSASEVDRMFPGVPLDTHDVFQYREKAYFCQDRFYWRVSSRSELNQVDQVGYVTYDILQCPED

Consider `C[C@]1(CS(=O)(=O)N2CC=C(C#Cc3cnc(C4CC4)nc3)CC2)NC(=O)NC1=O` [AZD1236], for which the 50% inhibitory concentration (IC50) came out at 4.5 nM on human MMP-9 and 6.1 nM against human MMP-12. At rat MMP-9, the “activity against rat MMP-9” value is “not active”. In addition, at rat MMP-12, the “activity against rat MMP-12” value is “not active”. For the same compound, the “TNF-α, IL-1β and IL-6 production by LPS-activated microglia” value (from here on “TNF-α, IL-1β and IL-6 production”) in assay [1] (100 ng/ml) was “returning their concentrations to DMEM/F12-medium control levels”; in assay [1] (500 ng/ml), “completely suppressed the production of these cytokines”; in assay [1] (10-500 ng/ml), “dose-dependent decrease”. Further, the “DC injury-induced increase in water content (FIG. 20)” value with DC injury is on record as “completely suppressed”.
As to `C[C@]1(CS(=O)(=O)N2CCC(Oc3ccc(Cl)cn3)CC2)NC(=O)NC1=O` [AZD3342, (5S)-5-[4-(5-chloro-pyridin-2-yloxy)-piperidine-1-sulfonylmethyl]-5-methylimidazolidine-2,4-dione], the IC50 against human MMP-9 is 10 nM; at human MMP-12, 6 nM and 5.9 nM; on rat MMP-9 (read-out: IC50 against rat MMP-9) it was 117 nM; on rat MMP-12 (read-out: IC50 against rat MMP-12) it was 35 nM. Also, in the assay with DC injury, the “DC injury-induced increase in water content (FIG. 20)” value is “completely suppressed”.
With `CNC(=O)[C@H](Cc1c[nH]c2ccccc12)NC(=O)[C@@H](CC(=O)NO)CC(C)C` [GM6001, (2R)—N^4-Hydroxy-N^1-[(1S)-1-(1H-indol-3-ylmethyl)-2-(methylamino)-2-oxoethyl]-2-(2-methylpropyl)butanediamide, reference compound], the “TNF-α, IL-1β and IL-6 production” value in assay [1] (10-500 ng/ml) was “marginal effects”.
As to `CCN(CC)Cc1cc(C)c(N(Cc2ccccc2)S(=O)(=O)c2ccc(OC)cc2)c(C(=O)NO)c1` [MMP-9 Inhibitor I, reference compound], in assay [1] (10-500 ng/ml), the “TNF-α, IL-1β and IL-6 production” value was “marginal effects”.
Still for that read-out and setting: the value for `COCCN1CCC(C(=O)NO)(S(=O)(=O)c2ccc(Oc3ccc(OC(F)(F)F)cc3)cc2)CC1` [SD2590, N-Hydroxy-1-(2-methoxyethyl)-4-[4-[4-(trifluoromethoxy)phenoxy]phenyl]sulfonyl]-4-piperidinecarboxamide hydrochloride, reference compound] was “marginal effects”.
